US10046050B2, “Targeting immunotherapy for amyloidosis” (UNIVERSITY OF TENNESSEE RESEARCH FOUNDATION, priority 2014, dated 2018)

Tests used:
human Tal ALκ amyloid = assay: Immunohistochemistry of biotinyl-7D8 on formalin-fixed tissue sections; format: binding; settings: kidney, label = pre-treatment peptide, or 7D8 alone
Description: (§1) The binding of biotinylated 7D8 mAb with autopsy-derived, formalin-fixed, paraffin-embedded tissue sections containing, ATTR, ALκ or ALλ was assessed immunohistochemically. Consecutive tissue sections were stained with: Congo red; biotinylated 7D8 alone; 7D8 with the control peptide p5; or, 7D8 mAb with peptope p75 pretreatment. Briefly, six μm-thick tissue sections were subjected to antigen retrieval by incubation in CitraPlus solution (BioGenex, San Ramon, Calif.) for 30 min at 90° C. Unlabeled peptope p75 was added to the tissue at ˜3 μg/mL and incubated overnight at 4° C. Unbound reagent was removed by washing in PBST for 30 min. Tissues sections (with or without peptope pretreatment) were immunostained by addition of 3 μg/mL biotinylated 7D8 mAb. Slides were developed by addition of streptavidin-HRP (Vectastain Elite ABC kit, Vector Labs) followed by 3,3′-diaminobezidene (Vector Labs) and examined using a Leica DM500 microscope.

human Den ALλ amyloid = assay: as above; format: binding; settings: thyroid, label = pre-treatment peptide, or 7D8 alone
Description: as §1

human ATTR amyloid = assay: as above; format: binding; settings: label = pre-treatment peptide, or 7D8 alone
Description: as §1

mAb 7D8 = assay: ELISA binding of 7D8 to peptopes dried on microplates; settings: both assays
Description: Peptides (p75-78 and control reagents; peptide 39 [CGGHEDT] (SEQ ID NO: 54), peptide 41 [CGGHEDTMADQE] (SEQ ID NO: 55) and peptide p5 (SEQ ID NO: 1), were prepared at 1 μg/ml in PBS and 50 μl was added to each well of 1 96-well microplate (Costar EIA/RIA high binding). The peptides were dried onto the well at 37° C. overnight. Sample wells were blocked for 1 h by addition of 200 μL of 1% BSA in PBS. Primary antibodies (7D8 or biotinylated 7D8) and secondary antibodies (biotinylated goat anti mouse) were added in 100 μL of a diluent of 1% BSA and 0.05% tween 20 in PBS. The 7D8 primary antibody was tested with a 1:2 dilution series beginning at 50 nM. A 1/3000 dilution of the secondary biotinylated goat anti-mouse IgG antibody (Sigma) was added for 1 h and the microplate washed. When the biotinylated 7D8 mAb was used the secondary antibody step was omitted. Binding was visualized by addition of a 1/1000 dilution of europium/streptavidin (Perkin Elmer) for 1 h and developed with enhancement solution (Perkin Elmer) before quantifying the signal using a time-resolved fluorescence plate reader (Wallac).

KAQKAQAKQAKQAQKAQKAQAKQAKQ (KAQKAQAKQAKQAQKAQKAQAKQAKQ; Peptide p5)
immunohistochemical staining with biotinyl-7D8 (human Tal ALκ amyloid): inhibited this effect | immunohistochemical staining with biotinyl-7D8 (human Den ALλ amyloid): inhibited this effect | immunohistochemical staining with biotinyl-7D8 (human ATTR amyloid; Gre ATTR, esophagus): decreased | immunohistochemical staining with biotinyl-7D8 (human ATTR amyloid; Gre ATTR, heart): partially inhibited | immunohistochemical staining with biotinyl-7D8 (human ATTR amyloid; Ken ATTR, heart): background 7D8 staining was diminished | immunohistochemical staining with biotinyl-7D8 (human ATTR amyloid; Sno ATTR, heart): background 7D8 staining was diminished | binding of 7D8 and biotinyl-7D8 (mAb 7D8): no binding
